This passage reports EC50 results from publication PMC8982737, “Discovery of S-217622, a Noncovalent Oral SARS-CoV-2 3CL Protease Inhibitor Clinical Candidate for Treating COVID-19” (Journal of Medicinal Chemistry, 2022).

The test has as its system SARS-CoV-2. In words: microbe, parasite or virus in culture. The following applies: Severe acute respiratory syndrome coronavirus 2, VeroE6/TMPRSS2; read-out: EC50 against all tested SARS-CoV-2 variants. It is filed as cell-based.

In general, EC50 refers to the concentration that produces a half-maximal response. Turning to `Cn1cnc(Cn2c(=O)[nH]/c(=N\c3cc4cn(C)nc4cc3Cl)n(Cc3cc(F)c(F)cc3F)c2=O)n1` [Compound 3, (6E)-6-[(6-Chloro-2-methyl-2H-indazol-5-yl)imino]-3-[(1-methyl-1H-1,2,4-triazol-3-yl)methyl]-1-(2,4,5-trifluorobenzyl)-1,3,5-triazinane-2,4-dione], the EC50 was in the range of 290 to 500 nM.
